These results are taken from patent US20240279215A1 (Cytokinetics, Incorporated, priority 2022, published 2024).

Molecules are shown by their SMILES.

For the experiment, the target named is human NAMPT (Homo sapiens (Human), UniProt P43490). Briefly: NMN fluorescence biochemical assay (human recombinant NAMPT enzyme assay). Summed up: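 Activation of recombinant human NAMPT (6 nM) was tested with 2.5 mM ATP, 20 μM PRPP and 150 μM nicotinamide in 50 mM HEPES pH 7.2 for 60 min at ambient temperature. NMN was derivatized with acetophenone/KOH/formic acid and read by fluorescence (355/460 nm) after 40 min.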
Chain of human NAMPT (P43490 whole entry): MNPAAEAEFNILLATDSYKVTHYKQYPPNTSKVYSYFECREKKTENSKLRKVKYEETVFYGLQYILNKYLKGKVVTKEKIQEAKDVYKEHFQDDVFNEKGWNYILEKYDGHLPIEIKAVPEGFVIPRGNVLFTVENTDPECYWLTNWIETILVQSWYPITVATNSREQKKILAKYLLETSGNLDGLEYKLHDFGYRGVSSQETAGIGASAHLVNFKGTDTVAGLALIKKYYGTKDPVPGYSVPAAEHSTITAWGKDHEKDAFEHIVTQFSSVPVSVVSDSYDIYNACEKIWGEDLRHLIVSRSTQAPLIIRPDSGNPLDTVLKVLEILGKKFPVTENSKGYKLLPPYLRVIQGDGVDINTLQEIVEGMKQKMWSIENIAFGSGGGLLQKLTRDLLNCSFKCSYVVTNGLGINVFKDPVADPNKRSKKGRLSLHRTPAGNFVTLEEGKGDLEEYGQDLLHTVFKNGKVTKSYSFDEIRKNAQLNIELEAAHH
With `COc1cnn(C)c1C(=O)N(C)Cc1ccc(NC(=O)OCc2ccc(Cl)cc2)cc1` [Compound 253, (4-chlorophenyl)methyl N-(4-{[1-(4-methoxy-2-methylpyrazol-3-yl)-N-methylformamido]methyl}phenyl)carbamate], the “AC1.4 Human” value was 2.62 µM and the EC50 (commonly the concentration needed to bring the measured effect to its halfway point) was determined as 17.9 µM.
The like results for `Cn1ccc(C(=O)NCc2ccc(NC(=O)OCc3ccc(Cl)cc3)cc2)c1` [Compound 254, (4-chlorophenyl)methyl N-(4-{[(1-methylpyrrol-3-yl)formamido]methyl}phenyl)carbamate] were, in that order, 2.64 µM and 15.1 µM.
In the same order, the values of `Cn1ccc(C(=O)NCc2ccc(NC(=O)OCc3ccc(Cl)cc3)cc2)n1` [Compound 255, (4-chlorophenyl)methyl N-(4-{[(1-methylpyrazol-3-yl)formamido]methyl}phenyl)carbamate] are 2.65 µM and 31.7 µM.
As to `C[C@@H]1CCCN(C(=O)Cc2ccc(NC(=O)OCc3ccc(Cl)cc3)cc2)C1` [Compound 256, (4-chlorophenyl)methyl N-(4-{2-[(3R)-3-methylpiperidin-1-yl]-2-oxoethyl}phenyl)carbamate], the “AC1.4 Human” value stood at 2.69 µM and the EC50 worked out at 10.5 µM.
`O=C(Nc1ccc(CC(=O)N2CCCC[C@H]2CO)cc1)OCc1ccc(Cl)cc1` [Compound 257, (4-chlorophenyl)methyl N-(4-{2-[(2S)-2-(hydroxymethyl)piperidin-1-yl]-2-oxoethyl}phenyl)carbamate]: the “AC1.4 Human” value turned out to be 2.70 µM and the EC50 came out at 31.2 µM.
The like results for `O=C(Nc1ccc(CNC(=O)N2CCN(CC(F)F)CC2)cc1)OCc1ccc(Cl)cc1` [Compound 258, (4-chlorophenyl)methyl N-(4-{[4-(2,2-difluoroethyl)piperazine-1-carbonylamino]methyl}phenyl)carbamate] were, in that order, 2.74 µM and 7.62 µM.
For `C[C@H](NC(=O)c1cc(C(F)F)nn1C)c1ccc(NC(=O)OCc2ccc(Cl)cc2)cc1` [Compound 259], the “AC1.4 Human” value amounted to 2.75 µM and the EC50 worked out at 13.9 µM.
In the case of `CCc1ncoc1C(=O)N[C@@H](C)c1ccc(NC(=O)OCc2ccc(Cl)cc2)cc1` [Compound 260, (4-chlorophenyl)methyl N-{4-[(1S)-1-[(4-ethyl-1,3-oxazol-5-yl)formamido]ethyl]phenyl}carbamate], the “AC1.4 Human” value was found to be 2.77 µM and the EC50 was found to be 14.5 µM.
In the case of `C[C@H]1CCCN(C(=O)Cc2ccc(NC(=O)OCc3ccc(Cl)cc3)cc2)C1` [Compound 261, (4-chlorophenyl)methyl N-(4-{2-[(3S)-3-methylpiperidin-1-yl]-2-oxoethyl}phenyl)carbamate], the “AC1.4 Human” value was found to be 2.83 µM and the EC50 is 9.46 µM.
In the same order, the values of `COc1ccc(COC(=O)Nc2ccc(Cc3ccncc3)cc2)cc1` [Compound 262, 4-methoxybenzyl (4-(pyridin-4-ylmethyl)phenyl)carbamate] are 2.83 µM and 11.9 µM.
The like results for `COc1ccc(COC(=O)Nc2ccc([C@H]3CNC(=O)CN3C)cc2)cc1` [Compound 263, 4-methoxybenzyl (S)-(4-(1-methyl-5-oxopiperazin-2-yl)phenyl)carbamate] were, in that order, 2.92 µM and 39.1 µM.
For `Cc1ccc(N(C)C(=O)Cc2ccc(NC(=O)OCc3ccc(Cl)cc3)cc2)cn1` [Compound 264, (4-chlorophenyl)methyl N-(4-{[methyl(6-methylpyridin-3-yl)carbamoyl]methyl}phenyl)carbamate], the “AC1.4 Human” value amounted to 2.93 µM and the EC50 came to 19.7 µM.
In the same order, the values of `O=C(Nc1ccc(CNC(=O)N2CCC2)cc1)OCc1ccc(Cl)cc1` [Compound 265, (4-chlorophenyl)methyl N-{4-[(azetidine-1-carbonylamino)methyl]phenyl}carbamate] are 2.94 µM and 23.2 µM.
The like results for `C[C@H](NC(=O)C1CC1)c1ccc(NC(=O)OCc2cnco2)cc1` [Compound 266, 1,3-oxazol-5-ylmethyl N-{4-[(1S)-1-(cyclopropylformamido)ethyl]phenyl}carbamate] were, in that order, 2.98 µM and 14.9 µM.
The like results for `Cc1cnc(C(=O)N[C@@H](C)c2ccc(NC(=O)OCc3ccc(Cl)cc3)cc2)o1` [Compound 267, 4-chlorobenzyl (S)-(4-(1-(5-methyloxazole-2-carboxamido)ethyl)phenyl)carbamate] were, in that order, 3.04 µM and 36.5 µM.
Take `Cc1cnoc1C(=O)NCc1ccc(NC(=O)OCc2ccc(Cl)cc2)cc1` [Compound 268, (4-chlorophenyl)methyl N-(4-{[(4-methyl-1,2-oxazol-5-yl)formamido]methyl}phenyl)carbamate]: the “AC1.4 Human” value was 3.05 µM and the EC50 was determined as 13.8 µM.
For the compound `O=C(Nc1ccc(CCN2CCN(C3COC3)CC2)cc1)OCc1cnco1` [Compound 269, 1,3-oxazol-5-ylmethyl N-(4-{2-[4-(oxetan-3-yl)piperazin-1-yl]ethyl}phenyl)carbamate], the “AC1.4 Human” value amounted to 3.13 µM and the EC50 stood at 44.1 µM.
The like results for `O=C(Nc1ccc(CNC(=O)N2CCOCC2)cc1)OCc1ccc(Cl)cc1` [Compound 270, (4-chlorophenyl)methyl N-{4-[(morpholine-4-carbonylamino)methyl]phenyl}carbamate] were, in that order, 3.14 µM and 47.2 µM.
As to `O=C(Nc1ccc(CNC(=O)c2cncc(F)c2)cc1)OCc1ccc(Cl)cc1` [Compound 271, (4-chlorophenyl)methyl N-(4-{[(5-fluoropyridin-3-yl)formamido]methyl}phenyl)], the “AC1.4 Human” value came to 3.15 µM and the EC50 was found to be 4.8 µM.
With `O=C(Nc1ccc(CNC(=O)c2ccccn2)cc1)OCc1ccc(Cl)cc1` [Compound 272, (4-chlorophenyl)methyl N-{4-[(pyridin-2-ylformamido)methyl]phenyl}carbamate], the “AC1.4 Human” value is 3.18 µM and the EC50 was determined as 10.9 µM.
For `O=C(Cc1ccc(NC(=O)OCc2ccc(Cl)cc2)cc1)Nc1cncc(F)c1` [Compound 273, (4-chlorophenyl)methyl N-(4-{[(5-fluoropyridin-3-yl)carbamoyl]methyl}phenyl)carbamate], the “AC1.4 Human” value came to 3.21 µM and the EC50 was 14.4 µM.
The like results for `O=C(Nc1ccc(CC(=O)N2CCC(F)(F)CC2)cc1)OCc1ccc(Cl)cc1` [Compound 274, (4-chlorophenyl)methyl N-{4-[2-(4,4-difluoropiperidin-1-yl)-2-oxoethyl]phenyl}carbamate] were, in that order, 3.32 µM and 6.15 µM.
In the same order, the values of `Cc1ccc(C(=O)NCc2ccc(NC(=O)OCc3ccc(OC(F)F)cc3)cc2)cn1` [Compound 275, (4-(difluoro-13-methyl)phenyl)methyl (4-((6-methylnicotinamido)methyl)phenyl)carbamate] are 3.32 µM and 12.6 µM.
In the same order, the values of `Cc1coc(C(=O)NCc2ccc(NC(=O)OCc3ccc(Cl)cc3)cc2)n1` [Compound 276, (4-chlorophenyl)methyl N-(4-{[(4-methyl-1,3-oxazol-2-yl)formamido]methyl}phenyl)carbamate] are 3.32 µM and 18.3 µM.
On to `CN1CC(C(=O)NCc2ccc(NC(=O)OCc3ccc(Cl)cc3)cc2)CC1=O` (stereo not drawn) [Compound 277, (4-chlorophenyl)methyl N-(4-{[(1-methyl-5-oxopyrrolidin-3-yl)formamido]methyl}phenyl)carbamate], for which the “AC1.4 Human” value was determined as 3.36 µM and the EC50 was 39.9 µM.
The like results for `CN1CC(=O)NC[C@@H]1c1ccc(NC(=O)OCc2ccc(F)cc2)cc1` [Compound 278, 4-fluorobenzyl (S)-(4-(1-methyl-5-oxopiperazin-2-yl)phenyl)carbamate] were, in that order, 3.40 µM and 17.4 µM.
As to `O=C(Nc1ccc(Cc2ncccn2)cc1)OCc1ccc(Cl)cc1` [Compound 279, 4-chlorobenzyl (4-(pyrimidin-2-ylmethyl)phenyl)carbamate], the “AC1.4 Human” value was 3.43 µM and the EC50 stood at 29 µM.
In the case of `CO[C@H]1CC[C@@H](NC(=O)Cc2ccc(NC(=O)OCc3ccc(Cl)cc3)cc2)CC1` [Compound 280, (4-chlorophenyl)methyl N-[4-({[(1s,4s)-4-methoxycyclohexyl]carbamoyl}methyl)phenyl]carbamate], the “AC1.4 Human” value worked out at 3.51 µM and the EC50 turned out to be 14.5 µM.
The like results for `CC(=O)N1CCOC(c2ccc(NC(=O)OCc3ccc(Cl)cc3)cc2)C1` (stereo not drawn) [Compound 281, (4-chlorophenyl)methyl N-[4-(4-acetylmorpholin-2-yl)phenyl]carbamate] were, in that order, 3.56 µM and 46.9 µM.
The like results for `O=C(Nc1ccc(CC(=O)N2CCN(CC(F)F)CC2)cc1)OCc1ccc(Cl)cc1` [Compound 282, (4-chlorophenyl)methyl N-(4-{2-[4-(2,2-difluoroethyl)piperazin-1-yl]-2-oxoethyl}phenyl)carbamate] were, in that order, 3.57 µM and 19.1 µM.
In the same order, the values of `COC1CCN(C(=O)Cc2ccc(NC(=O)OCc3ccc(Cl)cc3)cc2)CC1` [Compound 283, (4-chlorophenyl)methyl N-{4-[2-(4-methoxypiperidin-1-yl)-2-oxoethyl]phenyl}carbamate] are 3.61 µM and 47.9 µM.
Regarding `CN1CCN(Cc2ccc(NC(=O)OCc3ccc(Cl)cc3)cc2)CC1=O` [Compound 284, (4-chlorophenyl)methyl N-{4-[(4-methyl-3-oxopiperazin-1-yl)methyl]phenyl}carbamate], the “AC1.4 Human” value amounted to 3.72 µM and the EC50 is 19.2 µM.
For the compound `O=C(Nc1ccc(CNC(=O)C2CCOCC2)cc1)OCc1ccc(Cl)cc1` [Compound 285, (4-chlorophenyl)methyl N-{4-[(oxan-4-ylformamido)methyl]phenyl}carbamate], the “AC1.4 Human” value came to 3.78 µM and the EC50 was determined as 9.55 µM.
